Bridge positions count the residues as written; N and C are the ends. Peptide text beside a SMILES is read from it.
Legend:
integrin αvβ6 [1] = biological target: T1, integrin αvβ6 (Homo sapiens, UniProt P06756+P18564); experiment: AlphaLISA competition assay vs LAP, biotinylated αvβ6; type: binding
integrin αvβ8 [2] = biological target: T2, integrin αvβ8 (Homo sapiens, UniProt P06756+P26012); experiment: AlphaLISA competition assay vs LAP, biotinylated αvβ8; type: binding
integrin αvβ6 [3] = biological target: T1, integrin αvβ6; experiment: ELISA competition assay, integrin αvβ6 binding to LAP
integrin αvβ8 [4] = biological target: T2, integrin αvβ8; experiment: ELISA competition assay, integrin αvβ8 binding to LAP
[5] = αvβ6 IC50, ELISA competition vs LAP, mean, n ≥ 3

`CC[C@H](C)[C@H](NC(=O)[C@@H]1CCCN1C(=O)[C@H](C)NC(=O)[C@H](CC(=O)O)NC(=O)CNC(=O)[C@H](CCCNC(=N)N)NC(=O)[C@@H](NC(=O)[C@H](Cc1ccccc1)NC(=O)[C@H](Cc1ccc(O)cc1)NC(=O)[C@@H]1CCC(=O)NCC(=O)NCC(=O)N[C@@H](C)C(=O)NCC(=O)N[C@@H](Cc2c[nH]cn2)C(=O)N[C@@H](C(C)C)C(=O)N2CCC[C@H]2C(=O)N1)C(C)C)C(=O)N[C@@H](CO)C(=O)N[C@@H](Cc1ccccc1)C(=O)N[C@@H](Cc1ccc(O)cc1)C(=O)NCC(=O)O` [lassotide 4] (GGAGHVPEYFVRGDAPISFYG-OH; lactam N-8; C-terminus assumed) gave an IC50 (integrin αvβ6 [1]) of 436 nM and an IC50 (integrin αvβ8 [2]) of 109 nM.

For `CC[C@H](C)[C@H](NC(=O)[C@@H]1CCCN1C(=O)[C@H](CCSC)NC(=O)[C@H](CC(=O)O)NC(=O)CNC(=O)[C@H](CCCNC(=N)N)NC(=O)[C@@H](NC(=O)[C@H](Cc1ccccc1)NC(=O)[C@H](Cc1ccc(O)cc1)NC(=O)[C@@H]1CCC(=O)NCC(=O)NCC(=O)N[C@@H](C)C(=O)NCC(=O)N[C@@H](Cc2c[nH]cn2)C(=O)N[C@@H](C(C)C)C(=O)N2CCC[C@H]2C(=O)N1)C(C)C)C(=O)N[C@@H](CO)C(=O)N[C@@H](Cc1ccccc1)C(=O)N[C@@H](Cc1ccc(O)cc1)C(=O)NCC(=O)O` [lassotide 5] (GGAGHVPEYFVRGDMPISFYG-OH; lactam N-8; C-terminus assumed), the IC50 (integrin αvβ6 [1]) was 280 nM and the IC50 (integrin αvβ8 [2]) was 259 nM.

`CC[C@H](C)[C@H](NC(=O)[C@@H]1CCCN1C(=O)[C@H](Cc1c[nH]cn1)NC(=O)[C@H](CC(=O)O)NC(=O)CNC(=O)[C@H](CCCNC(=N)N)NC(=O)[C@@H](NC(=O)[C@H](Cc1ccccc1)NC(=O)[C@H](Cc1ccc(O)cc1)NC(=O)[C@@H]1CCC(=O)NCC(=O)NCC(=O)N[C@@H](C)C(=O)NCC(=O)N[C@@H](Cc2c[nH]cn2)C(=O)N[C@@H](C(C)C)C(=O)N2CCC[C@H]2C(=O)N1)C(C)C)C(=O)N[C@@H](CO)C(=O)N[C@@H](Cc1ccccc1)C(=O)N[C@@H](Cc1ccc(O)cc1)C(=O)NCC(=O)O` [lassotide 6] (GGAGHVPEYFVRGDHPISFYG-OH; lactam N-8; C-terminus assumed) was tested, and the IC50 (integrin αvβ6 [1]) was 457 nM and the IC50 (integrin αvβ8 [2]) was 167 nM.

Molecule `CC[C@H](C)[C@H](NC(=O)[C@H](CC(C)C)NC(=O)[C@H](CC(=O)O)NC(=O)CNC(=O)[C@H](CCCNC(=N)N)NC(=O)[C@H](CCCNC(=N)N)NC(=O)[C@H](Cc1ccccc1)NC(=O)[C@H](Cc1ccc(O)cc1)NC(=O)[C@@H]1CCC(=O)NCC(=O)NCC(=O)N[C@@H](C)C(=O)NCC(=O)N[C@@H](Cc2c[nH]cn2)C(=O)N[C@@H](C(C)C)C(=O)N2CCC[C@H]2C(=O)N1)C(=O)N[C@@H](CO)C(=O)N[C@@H](Cc1ccccc1)C(=O)N[C@@H](Cc1ccc(O)cc1)C(=O)NCC(=O)O` [lassotide 20] (GGAGHVPEYFRRGDLISFYG-OH; lactam N-8; C-terminus assumed) has an IC50 (integrin αvβ6 [1]) of 17 nM and an IC50 (integrin αvβ8 [2]) of 38 nM.

Molecule `CC[C@H](C)[C@H](NC(=O)[C@H](CC(C)C)NC(=O)[C@H](CC(=O)O)NC(=O)CNC(=O)[C@H](CCCNC(=N)N)NC(=O)[C@H](Cc1ccc(O)cc1)NC(=O)[C@H](Cc1ccccc1)NC(=O)[C@H](Cc1ccc(O)cc1)NC(=O)[C@@H]1CCC(=O)NCC(=O)NCC(=O)N[C@@H](C)C(=O)NCC(=O)N[C@@H](Cc2c[nH]cn2)C(=O)N[C@@H](C(C)C)C(=O)N2CCC[C@H]2C(=O)N1)C(=O)N[C@@H](CO)C(=O)N[C@@H](Cc1ccccc1)C(=O)N[C@@H](Cc1ccc(O)cc1)C(=O)NCC(=O)O` [lassotide 22] (GGAGHVPEYFYRGDLISFYG-OH; lactam N-8; C-terminus assumed) has an IC50 (integrin αvβ6 [1]) of 198 nM and an IC50 (integrin αvβ8 [2]) of 78 nM.

`CC(C)C[C@H](NC(=O)[C@H](CC(=O)O)NC(=O)CNC(=O)[C@H](CCCNC(=N)N)NC(=O)[C@@H](NC(=O)[C@H](Cc1ccccc1)NC(=O)[C@H](Cc1ccc(O)cc1)NC(=O)[C@@H]1CCC(=O)NCC(=O)NCC(=O)N[C@@H](C)C(=O)NCC(=O)N[C@@H](Cc2c[nH]cn2)C(=O)N[C@@H](C(C)C)C(=O)N2CCC[C@H]2C(=O)N1)C(C)C)C(=O)N[C@@H](C)C(=O)N[C@@H](CO)C(=O)N[C@@H](Cc1ccccc1)C(=O)N[C@@H](Cc1ccc(O)cc1)C(=O)NCC(=O)O` [lassotide 23] (GGAGHVPEYFVRGDLASFYG-OH; lactam N-8; C-terminus assumed) gave an IC50 (integrin αvβ6 [1]) of 27 nM and an IC50 (integrin αvβ8 [2]) of 51 nM.

`CC[C@H](C)[C@H](NC(=O)[C@H](CC(C)C)NC(=O)[C@H](CC(=O)O)NC(=O)CNC(=O)[C@H](CCCNC(=N)N)NC(=O)[C@@H](NC(=O)[C@H](Cc1ccccc1)NC(=O)[C@H](Cc1ccc(O)cc1)NC(=O)[C@@H]1CCC(=O)NCC(=O)NCC(=O)N[C@@H]([C@@H](C)O)C(=O)NCC(=O)N[C@@H](Cc2c[nH]cn2)C(=O)N[C@@H](C(C)C)C(=O)N2CCC[C@H]2C(=O)N1)C(C)C)C(=O)N[C@@H](CO)C(=O)N[C@@H](Cc1ccccc1)C(=O)N[C@@H](Cc1ccc(O)cc1)C(=O)NCC(=O)O` [lassotide 34] (GGTGHVPEYFVRGDLISFYG-OH; lactam N-8; C-terminus assumed) showed an IC50 (integrin αvβ6 [3]; [5]) of 44 nM and an IC50 (integrin αvβ8 [4]) of 28 nM.

For `CC(C)C[C@H](NC(=O)[C@H](CC(=O)O)NC(=O)CNC(=O)[C@H](CCCNC(=N)N)NC(=O)[C@@H](NC(=O)[C@H](Cc1ccccc1)NC(=O)[C@H](Cc1ccc(O)cc1)NC(=O)[C@@H]1CCC(=O)NCC(=O)NCC(=O)N[C@@H](CCCNC(=N)N)C(=O)NCC(=O)N[C@@H](CO)C(=O)N[C@@H](C(C)C)C(=O)N2CCC[C@H]2C(=O)N1)C(C)C)C(=O)N[C@@H](CCC(N)=O)C(=O)N[C@@H](CO)C(=O)N[C@@H](Cc1ccccc1)C(=O)N[C@@H](Cc1ccc(O)cc1)C(=O)NCC(=O)O` [lassotide 39] (GGRGSVPEYFVRGDLQSFYG-OH; lactam N-8; C-terminus assumed), the IC50 (integrin αvβ6 [3]; [5]) was 3.1 nM and the IC50 (integrin αvβ8 [4]) was 5.1 nM.

Molecule `CC(C)C[C@H](NC(=O)[C@H](CC(=O)O)NC(=O)CNC(=O)[C@H](CCCNC(=N)N)NC(=O)[C@@H](NC(=O)[C@H](Cc1ccccc1)NC(=O)[C@H](Cc1ccc(O)cc1)NC(=O)[C@@H]1CCC(=O)NCC(=O)NCC(=O)N[C@@H](CCCNC(=N)N)C(=O)NCC(=O)N[C@@H](CCC(N)=O)C(=O)N[C@@H](C(C)C)C(=O)N2CCC[C@H]2C(=O)N1)C(C)C)C(=O)N[C@@H](CCC(N)=O)C(=O)N[C@@H](CO)C(=O)N[C@@H](Cc1ccccc1)C(=O)N[C@@H](Cc1ccc(O)cc1)C(=O)NCC(=O)O` [lassotide 40] (GGRGQVPEYFVRGDLQSFYG-OH; lactam N-8; C-terminus assumed) has an IC50 (integrin αvβ6 [3]; [5]) of 2 nM and an IC50 (integrin αvβ8 [4]) of 2.6 nM.

In the case of `CC[C@H](C)[C@@H]1NC(=O)[C@H](CO)NC(=O)CNC(=O)[C@H](CCCNC(=N)N)NC(=O)CNC(=O)CNC(=O)CC[C@@H](C(=O)N[C@@H](Cc2ccc(O)cc2)C(=O)N[C@@H](Cc2ccccc2)C(=O)N[C@H](C(=O)N[C@@H](CCCNC(=N)N)C(=O)NCC(=O)N[C@@H](CC(=O)O)C(=O)N[C@@H](CC(C)C)C(=O)N[C@@H](CCC(N)=O)C(=O)N[C@@H](CO)C(=O)N[C@@H](Cc2ccccc2)C(=O)N[C@@H](Cc2ccc(O)cc2)C(=O)NCC(=O)O)C(C)C)NC(=O)[C@@H]2CCCN2C1=O` [lassotide 41] (GGRGSIPEYFVRGDLQSFYG-OH; lactam N-8; C-terminus assumed), the IC50 (integrin αvβ6 [3]; [5]) is reported as 1.4 nM and the IC50 (integrin αvβ8 [4]) is reported as 5.8 nM.

In the case of `CC[C@H](C)[C@@H]1NC(=O)[C@H](CCC(N)=O)NC(=O)CNC(=O)[C@H](CCCNC(=N)N)NC(=O)CNC(=O)CNC(=O)CC[C@@H](C(=O)N[C@@H](Cc2ccc(O)cc2)C(=O)N[C@@H](Cc2ccccc2)C(=O)N[C@H](C(=O)N[C@@H](CCCNC(=N)N)C(=O)NCC(=O)N[C@@H](CC(=O)O)C(=O)N[C@@H](CC(C)C)C(=O)N[C@@H](CCC(N)=O)C(=O)N[C@@H](CO)C(=O)N[C@@H](Cc2ccccc2)C(=O)N[C@@H](Cc2ccc(O)cc2)C(=O)NCC(=O)O)C(C)C)NC(=O)[C@@H]2CCCN2C1=O` [lassotide 42] (GGRGQIPEYFVRGDLQSFYG-OH; lactam N-8; C-terminus assumed), the IC50 (integrin αvβ6 [3]; [5]) is reported as 3 nM and the IC50 (integrin αvβ8 [4]) is reported as 2.5 nM.

With `CC[C@H](C)[C@@H]1NC(=O)[C@H](CO)NC(=O)CNC(=O)[C@H](CCCNC(=N)N)NC(=O)CNC(=O)CNC(=O)CC[C@@H](C(=O)N[C@@H](Cc2ccc(O)cc2)C(=O)N[C@@H](Cc2ccccc2)C(=O)N[C@H](C(=O)N[C@@H](CCCNC(=N)N)C(=O)NCC(=O)N[C@@H](CC(=O)O)C(=O)N[C@@H](CC(C)C)C(=O)N[C@@H](CCC(N)=O)C(=O)N[C@@H](CO)C(=O)N[C@@H](Cc2ccccc2)C(=O)N[C@@H](Cc2ccc(O)cc2)C(=O)N[C@@H](CCCCN)C(=O)O)C(C)C)NC(=O)[C@@H]2CCCN2C1=O` [lassotide 43] (GGRGSIPEYFVRGDLQSFYK-OH; lactam N-8; C-terminus assumed) the IC50 (integrin αvβ6 [3]; [5]) was 1.2 nM and the IC50 (integrin αvβ8 [4]) was 5.1 nM.

For `CC(C)C[C@H](NC(=O)[C@H](CC(=O)O)NC(=O)CNC(=O)[C@H](CCCNC(=N)N)NC(=O)[C@H](CCC(N)=O)NC(=O)[C@H](Cc1ccccc1)NC(=O)[C@H](Cc1ccc(O)cc1)NC(=O)[C@@H]1CCC(=O)NCC(=O)NCC(=O)N[C@@H]([C@@H](C)O)C(=O)NCC(=O)N[C@@H](Cc2c[nH]cn2)C(=O)N[C@@H](C(C)C)C(=O)N2CCC[C@H]2C(=O)N1)C(=O)N[C@@H](CCC(N)=O)C(=O)N[C@@H](CO)C(=O)N[C@@H](Cc1ccccc1)C(=O)N[C@@H](Cc1ccc(O)cc1)C(=O)NCC(=O)O` [lassotide 45] (GGTGHVPEYFQRGDLQSFYG-OH; lactam N-8; C-terminus assumed), the IC50 (integrin αvβ6 [3]) was 0.7 nM and the IC50 (integrin αvβ8 [4]) was 1 nM.

`CC[C@H](C)[C@@H]1NC(=O)[C@H](Cc2c[nH]cn2)NC(=O)CNC(=O)[C@H]([C@@H](C)O)NC(=O)CNC(=O)CNC(=O)CC[C@@H](C(=O)N[C@@H](Cc2ccc(O)cc2)C(=O)N[C@@H](Cc2ccccc2)C(=O)N[C@@H](CCC(N)=O)C(=O)N[C@@H](CCCNC(=N)N)C(=O)NCC(=O)N[C@@H](CC(=O)O)C(=O)N[C@@H](CC(C)C)C(=O)N[C@@H](CCC(N)=O)C(=O)N[C@@H](CO)C(=O)N[C@@H](Cc2ccccc2)C(=O)N[C@@H](Cc2ccc(O)cc2)C(=O)NCC(=O)O)NC(=O)[C@@H]2CCCN2C1=O` [lassotide 46] (GGTGHIPEYFQRGDLQSFYG-OH; lactam N-8; C-terminus assumed) was tested, and the IC50 (integrin αvβ6 [3]; [5]) was 2.1 nM and the IC50 (integrin αvβ8 [4]) was 1.3 nM.
